# Test system: MaTu estrogen-independent human mammary carcinoma cells
# Test: MaTu human estrogen-independent mammary carcinoma xenograft model, tumor growth inhibition (tumor area by caliper)
# Assay type: in vivo, NMRI nude mice
# Set-up: inhibition of the growth of the MaTu xenograft model: dose or concentration left out as unconfirmed
# Details: monotherapy
# Description: MaTu (EPO-GmbH, Berlin) estrogen-independent human mammary carcinoma cells, obtained from cell culture, were implanted s.c. in the inguinal region of femal NMRI nude mice. Treatment was started when the tumors were approximately 20 mm^2 in size. The groups were closed when the tumors within a treatment group reached a size of approximately 100 mm^2.
# Experimental groups included the following: • 1) Control vehicle • 2) a CDK inhibitor ([…]) • 3) a VEGF-R inhibitor (50 mg/kg, p.o. twice daily, d4-d21) • 4) a CDK inhibitor ([…]) in combination with a VEGF-R inhibitor (50 mg/kg, p.o. twice daily, d4-d21) CDK inhibitor = N-[5-[[[5-(1,1-dimethylethyl)-2-oxazolyl] methyl]thio]-2-thiazolyl]-4-piperidinecarboxamide VEGF-R inhibitor = (4-Chlorophenyl)[4-(4-pyridylmethyl)phthalazin-1-yl]ammonium hydrogen succinate
# Tumor area was determined by caliper measurement twice weekly. The example was designed to determine the initial response of a human estrogen-independent mammary carcinoma xenograft model to treatment with a specific CDK inhibitor, to treatment with a specific VEGF-R inhibitor, and to treatment with a combination of a CDK inhibitor together with a VEGF-R inhibitor. The tumor growth inhibiting effect of the compounds was investigated in the MaTu human estrogen-independent mammary carcinoma model, xenografted in NMRI nude mice. […]
smiles,measurement,setting,value
"CC(C)(C)c1cnc(CSc2cnc(NC(=O)C3CCNCC3)s2)o1 [CDK inhibitor, N-[5-[[[5-(1,1-dimethylethyl)-2-oxazolyl]methyl]thio]-2-thiazolyl]-4-piperidinecarboxamide]",inhibition of the growth of the MaTu xenograft model,"i.p. once daily, d4-d21, s.c. xenograft in female NMRI nude mice",ineffective
"Clc1ccc(Nc2nnc(Cc3ccncc3)c3ccccc23)cc1.O=C(O)CCC(=O)O [VEGF-R inhibitor, (4-Chlorophenyl)[4-(4-pyridylmethyl)phthalazin-1-yl]ammonium hydrogen succinate]",inhibition of tumor growth,"50 mg/kg p.o. twice daily, d4-d21, s.c. MaTu xenograft in female NMRI nude mice",initially an inhibition of tumor growth
